Laboratory results: publication PMC7496434 (Chemmedchem, 2020)

Experiments:
[1] = target: T1, human P2X3 receptor (Homo sapiens, UniProt P56373); assay: inhibition of ATP-induced calcium influx; type: cell-based; conditions: agonist ATP at ~80% of maximal effect; read-out: 6
T1 construct: gene P2RX3; full-length receptor stably expressed in 1321 N1 astrocytoma cells; homotrimer
T1 sequence (P56373 1-397): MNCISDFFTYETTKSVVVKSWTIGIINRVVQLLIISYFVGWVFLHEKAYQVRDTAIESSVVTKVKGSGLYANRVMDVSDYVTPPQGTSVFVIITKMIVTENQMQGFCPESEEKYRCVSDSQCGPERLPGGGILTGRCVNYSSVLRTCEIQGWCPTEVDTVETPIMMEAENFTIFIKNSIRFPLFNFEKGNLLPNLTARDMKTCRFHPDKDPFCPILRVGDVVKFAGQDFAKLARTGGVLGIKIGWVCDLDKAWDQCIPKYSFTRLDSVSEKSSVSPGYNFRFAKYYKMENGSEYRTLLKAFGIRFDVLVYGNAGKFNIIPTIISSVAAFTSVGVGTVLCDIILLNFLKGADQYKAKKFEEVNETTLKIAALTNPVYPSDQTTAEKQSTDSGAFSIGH
Source text: inhibition of ATP-induced calcium influx on human P2X3 receptor

[2] = target: T2, human adenosine A3 receptor (A3AR) (Homo sapiens, UniProt P0DMS8); assay: [3H]PSB-11 radioligand competition, CHO membranes; type: binding; conditions: 0.5 nM [3H]PSB-11, 50 mM Tris-HCl pH 7.4, 23 °C, 60 min; read-out: 6
T2 construct: gene ADORA3; membrane preparations of CHO cells expressing human A3AR
T2 sequence (P0DMS8 1-318): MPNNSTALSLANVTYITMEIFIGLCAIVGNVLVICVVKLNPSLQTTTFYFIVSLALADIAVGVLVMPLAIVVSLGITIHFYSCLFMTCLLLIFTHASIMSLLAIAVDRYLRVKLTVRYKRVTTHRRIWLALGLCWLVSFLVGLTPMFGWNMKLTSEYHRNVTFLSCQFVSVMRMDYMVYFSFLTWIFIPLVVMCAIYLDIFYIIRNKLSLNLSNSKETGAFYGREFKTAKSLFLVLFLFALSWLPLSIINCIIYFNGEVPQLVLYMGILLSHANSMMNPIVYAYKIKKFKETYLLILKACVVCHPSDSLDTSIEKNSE
Source text: [3H]PSB-11 radioligand competition, CHO membranes on human adenosine A3 receptor (A3AR)

[3] = target: T3, human leukocyte elastase (HLE) (Homo sapiens, UniProt P08246); assay: chromogenic assay, […] nm; type: biochemical; conditions: 100 μM MeO-Suc-Ala-Ala-Pro-Val-pNA, sodium phosphate pH 7.8, 500 mM NaCl, 25 °C, 1.5% DMSO; read-out: 6
T3 construct: gene ELANE; enzyme stock in sodium acetate buffer
T3 sequence (P08246 30-247): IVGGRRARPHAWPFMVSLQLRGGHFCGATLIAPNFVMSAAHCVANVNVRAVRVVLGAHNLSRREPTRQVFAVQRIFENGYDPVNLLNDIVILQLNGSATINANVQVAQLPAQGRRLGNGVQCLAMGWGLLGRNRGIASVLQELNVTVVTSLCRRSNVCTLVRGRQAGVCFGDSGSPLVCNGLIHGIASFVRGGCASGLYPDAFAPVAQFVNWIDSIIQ

[4] = tested on: 1321N1 astrocytoma cells; assay: cells; design: MTT viability assay, absorbance at 570 nm; conditions: Homo sapiens, 1321-N1, 72 h; read-out: Growth inhibition IC50 ± SEM
Description: MTT assays: The test compounds were investigated at human 1321 N1 astrocytoma cells using the 3‐(4,5‐dimethylthiazol‐2‐yl)‐2,5‐diphenyltetrazolium bromide (MTT) assay in order to assess their cytotoxic effects. Assays were performed as previously described by Baqi et al.30 In brief, cells were detached from the 175 cm^2 culture flasks in which they were grown and subsequently counted using a Neubauer haemocytometer. Then, they were resuspended in the growth medium. An aliquot of the cell suspension (180 μL) was added into each well of a 96‐well plate to obtain 1000 cells per well and incubated for 24 h at 37 °C, 5 % CO2, and 95 % humidity. The outer wells of the 96‐well plate were filled with 200 μL of phosphate‐buffered saline (PBS) to prevent evaporation of the fluid. After 24 h, stock solutions (10 mM) of the test compounds (archazolids) were prepared in DMSO and diluted with cell culture medium to give tenfold of the final concentrations. […] The spectrophotometric absorbance was subsequently measured at 570 nm using a FlexStation (3 multimode plate reader, molecular devices) with a filter of 690 nm. The data were analyzed using Microsoft Excel and GraphPad Prism 5. Results were evaluated by comparing the absorbance of the wells containing compound‐treated cells with the absorbance of wells containing 1 % DMSO without any drug (=100 % viability). […]

IC50 [1] [nM] | Ki [2] [nM] | Ki [3] [nM] | IC50 [4] [nM] | Compound
1190 ± 180 | 436 ± 111 | 13300 ± 1500 | – | COC1C(C)=CCCCCOC(=O)CCCC(C)=CC(O)C(C)C=C(C)C=C(C)C=CC(O)C1C (stereo not shown) [compound 6, Analogue 6]
– | – | – | 19.6 ± 4 | COC1C(C)=CCCCCOC(=O)CCCC(C)=CC(O)C(C)C=C(C)C=C(C)C=CC(O)C1C (stereo not shown) [compound 6]
